Measurements as given in patent publication US8859584B2, “TRPV1 antagonists” (AbbVie Inc., priority 2011, dated 2014).
Like-named read-outs stand apart in the source and are kept apart here.

Key:
human TRPV1 [1] = target: T1, human TRPV1 (Homo sapiens, UniProt Q8NER1); assay: Acid Activation Assay (pH 5.0, FLIPR intracellular Ca2+, recombinant HEK293 cells); format: cell-based; conditions: percentage of maximal pH 5.0-induced response remaining; HEK293 hTRPV1; max concentration 37.5 μM
T1 construct: expressed in transfected cells
T1 sequence (Q8NER1 whole entry): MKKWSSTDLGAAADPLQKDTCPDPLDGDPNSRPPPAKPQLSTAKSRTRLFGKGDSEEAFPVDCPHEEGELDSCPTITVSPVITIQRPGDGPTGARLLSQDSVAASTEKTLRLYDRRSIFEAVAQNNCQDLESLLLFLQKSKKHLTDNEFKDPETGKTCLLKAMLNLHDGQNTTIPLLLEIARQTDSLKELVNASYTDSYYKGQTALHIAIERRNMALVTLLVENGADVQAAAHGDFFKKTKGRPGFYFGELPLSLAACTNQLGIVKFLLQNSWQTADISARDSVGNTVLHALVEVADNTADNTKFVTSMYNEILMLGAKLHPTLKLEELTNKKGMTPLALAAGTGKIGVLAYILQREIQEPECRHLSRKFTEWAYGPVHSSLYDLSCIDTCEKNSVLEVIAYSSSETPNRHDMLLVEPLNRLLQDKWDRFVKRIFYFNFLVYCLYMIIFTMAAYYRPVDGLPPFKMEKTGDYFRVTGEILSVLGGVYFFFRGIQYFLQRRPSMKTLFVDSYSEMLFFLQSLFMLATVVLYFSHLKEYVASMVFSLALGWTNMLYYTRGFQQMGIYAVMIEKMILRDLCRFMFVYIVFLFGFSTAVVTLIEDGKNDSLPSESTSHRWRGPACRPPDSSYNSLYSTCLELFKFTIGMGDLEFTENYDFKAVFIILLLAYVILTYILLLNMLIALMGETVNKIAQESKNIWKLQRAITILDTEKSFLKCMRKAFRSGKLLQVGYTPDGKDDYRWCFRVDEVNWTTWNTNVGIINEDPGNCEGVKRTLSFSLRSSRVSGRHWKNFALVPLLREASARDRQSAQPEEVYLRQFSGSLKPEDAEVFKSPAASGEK
How it was run: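 HEK293 cells stably expressing recombinant hTRPV1 were loaded with calcium dye for 90-120 min at 25° C and pre-treated with compound for 3 min before a pH 5.0 (DPBS/MES) challenge. Peak FLIPR fluorescence over baseline is given as percentage of the maximal pH 5.0-induced response.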

human TRPV1 [2] = target: T1, human TRPV1; assay: Capsaicin Activation Assay (FLIPR intracellular Ca2+, recombinant HEK293 cells); format: cell-based
[3] = recombinant HEK293 cells expressing hTRPV1, 50 nM capsaicin, read-out: human TRPV1 capsaicin IC50

Structure (SMILES)	human TRPV1 H+ (max % remain) (human TRPV1 [1]) [%]	IC50 (human TRPV1 [2]; [3]) [µM]	IC50 (human TRPV1 [2]) [µM]
O=C(Nc1cccc2c1C[C@H](O)C2)N[C@@H]1CC(CF)(CF)Oc2cc(C(F)F)ccc21 [Example 130, 1-[(4R)-7-(difluoromethyl)-2,2-bis(fluoromethyl)-3,4-dihydro-2H-chromen-4-yl]-3-[(2R)-2-hydroxy-2,3-dihydro-1H-inden-4-yl]urea]	85	34	
C[C@]1(CF)C[C@@H](NC(=O)Nc2ccc3c(c2)C(O)C3)c2ccc(Cl)cc2O1 (stereo partly drawn) [Example 131, 1-[(2R,4R)-7-chloro-2-(fluoromethyl)-2-methyl-3,4-dihydro-2H-chromen-4-yl]-3-(8-hydroxybicyclo[4.2.0]octa-1,3,5-trien-3-yl)urea]	92	1	
C[C@]1(CF)C[C@@H](NC(=O)Nc2ccc3c(c2)C(O)C3)c2ccccc2O1 (stereo partly drawn) [Example 132, 1-[(2R,4R)-2-(fluoromethyl)-2-methyl-3,4-dihydro-2H-chromen-4-yl]-3-(8-hydroxybicyclo[4.2.0]octa-1,3,5-trien-3-yl)urea]	95	31	
O=C(Nc1ccc(F)c2c1C[C@@H](O)C2)N[C@@H]1CC(CF)(CF)Oc2cc(Cl)ccc21 [Example 133, 1-[(4R)-7-chloro-2,2-bis(fluoromethyl)-3,4-dihydro-2H-chromen-4-yl]-3-[(2R)-7-fluoro-2-hydroxy-2,3-dihydro-1H-inden-4-yl]urea]	36		0.22
O=C(Nc1ccc(F)c2c1C[C@H](O)C2)N[C@@H]1CC(CF)(CF)Oc2cc(Cl)ccc21 [Example 134, 1-[(4R)-7-chloro-2,2-bis(fluoromethyl)-3,4-dihydro-2H-chromen-4-yl]-3-[(2S)-7-fluoro-2-hydroxy-2,3-dihydro-1H-inden-4-yl]urea]	3		0.349
CC1(C)C[C@@H](NC(=O)Nc2ccc(F)c3c2C[C@H](O)C3)c2cccc(C(F)(F)F)c2O1 [Example 135, 1-[(4R)-2,2-dimethyl-8-(trifluoromethyl)-3,4-dihydro-2H-chromen-4-yl]-3-[(2S)-7-fluoro-2-hydroxy-2,3-dihydro-1H-inden-4-yl]urea]	3	0.042	
CC1(C)C[C@@H](NC(=O)Nc2ccc(F)c3c2C[C@H](O)C3)c2cccc(F)c2O1 [Example 136, 1-[(4R)-8-fluoro-2,2-dimethyl-3,4-dihydro-2H-chromen-4-yl]-3-[(2S)-7-fluoro-2-hydroxy-2,3-dihydro-1H-inden-4-yl]urea]	5	2.8	
O=C(Nc1ccc(F)c2c1C[C@H](O)C2)N[C@@H]1CCOc2c(OC(F)(F)F)cccc21 [Example 137, 1-[(2S)-7-fluoro-2-hydroxy-2,3-dihydro-1H-inden-4-yl]-3-[(4R)-8-(trifluoromethoxy)-3,4-dihydro-2H-chromen-4-yl]urea]	4	0.35	
CC1(C)C[C@@H](NC(=O)Nc2ccc(F)c3c2C[C@H](O)C3)c2ccc(F)cc2O1 [Example 138, 1-[(4R)-7-fluoro-2,2-dimethyl-3,4-dihydro-2H-chromen-4-yl]-3-[(2S)-7-fluoro-2-hydroxy-2,3-dihydro-1H-inden-4-yl]urea]	4	0.82	
O=C(Nc1ccc(F)c2c1C[C@H](O)C2)N[C@@H]1CC(CF)(CF)Oc2cc(OC(F)(F)F)ccc21 [Example 139, 1-[(4R)-2,2-bis(fluoromethyl)-7-(trifluoromethoxy)-3,4-dihydro-2H-chromen-4-yl]-3-[(2S)-7-fluoro-2-hydroxy-2,3-dihydro-1H-inden-4-yl]urea]	2	0.37	
CC1(C)C[C@@H](NC(=O)Nc2ccc(F)c3c2C[C@H](O)C3)c2ccc(C(F)(F)F)cc2O1 [Example 140, 1-[(4R)-2,2-dimethyl-7-(trifluoromethyl)-3,4-dihydro-2H-chromen-4-yl]-3-[(2S)-7-fluoro-2-hydroxy-2,3-dihydro-1H-inden-4-yl]urea]	2	0.058	
